Values of other authors as cited in US20070281927A1, “Anti-inflammatory and analgesic compositions and related methods” (priority 2006, published 2007).

Assays:
[1] = not given; remark: listed apart in the source

Question: Which results are given for `Cc1cnc(NC(=O)C2=C(O)c3ccccc3S(=O)(=O)N2C)s1` [Meloxicam, 4-hydroxy-2-methyl-N-(5-methyl-2-thiazolyl-)-2H-1,2-benzothiazine-3-carboxamide 1,1-dioxide]?
Answer: time to maximum plasma concentration (after oral administration, many individuals): ≥ 5 h; time of second meloxicam concentration peak (post-dose, suggests gastrointestinal recirculation): twelve to fourteen; bioavailability (single 30 mg oral dose compared to 30 mg intravenous bolus injection): 89%; solubility in acidic or neutral mediums ([1]; acidic or neutral mediums): low solubility; solubility at the acidic pH range of the upper gastrointestinal tract ([1]; acidic pH range of the upper gastrointestinal tract): poorly soluble; solubility in water ([1]; water): practically insoluble
